Data as given in patent US20240300935A1, “Nitrogen Oxide Donors of Beraprost Derivative and the Pharmaceutical Compositions with the Use Thereof” (GUANGZHOU KEMROCMED CO., LTD., priority 2021, published 2024).

Legend:
[1] = system: platelet aggregation induced by ADP; assay: Antiplatelet aggregation effect, ADP-induced, turbidimetry in platelet-rich plasma; assay type: cell-based; settings: Homo sapiens, 2 min; platelet rich plasma of healthy subjects; 25 μL of 50 nM compound solution in 225 μL plasma, 37° C. 2 min; ADP final 2 μM; read-out: The rate of platelet aggregation inhibition
Method: • 1) Experimental material: ADP, epinephrine, collagen (bilBio) • 2) Experimental method: blood samples provided by healthy subjects were mixed blood with 3.8% citric acid solution and centrifuged at 160 r/min to obtain platelet-rich plasma. To calibrate the data, the obtained platelet-rich plasma was further centrifuged at 2000 r/min to obtain platelet-poor plasma, stored in a −20° C. refrigerator. Testing was performed using Born I's turbiometry. 225 μL of platelet rich plasma was added to the reaction cup, the embodiment compound was configured as 50 nM solution (25 m M Tris-acetate and 120 m M N a Cl), 25 μL of embodiment compound solution was added and after incubation at 37° C. for 2 min, 5 μL of ADP (final concentration 2 μM) was added for platelet aggregation induction. To assess the degree of platelet aggregation, the maximum absorbance value took the data after ADP, thus calculating the inhibition rate of ADP-induced platelet aggregation by each embodiment compound. According to the data in Table 6 below, the compounds of the present application embodiment all have a good effect of inhibiting the platelet aggregation induced by ADP.

[2] = In vitro NO release test (Griess method); settings: 200 μM test compound solution mixed with 200 μM L-cysteine solution, 37° C.
Method: NO was transiently oxidized in aqueous solution using released NO by Griess' method, NO^2− And Griess reagent form a complex, which has strong UV uptake at 540 nm to determine the amount of NO released by the compound. • 1) Preparation of solution: blank solution: 10 mL DMSO and 190 m L PBS mixed; G riess Reagent: sulfonamide (4.0 g), N-(1-naphthalyl) ethylenediamine dihydrochloride (0.2 g) and 10 mL 85% H3PO4 dissolved in 90 mL of distilled water, Blow until clear solution; L-cysteine solution: after accurate weighing of L-cysteine, Add a certain amount of PBS, Prepare a weighed 200 μM solution; Test compound solution: the exact weighing of the test compound, Dissolved in D MSO and diluted to a concentration of 1 mM, Then, when diluted in PBS, To a concentration of 200 μM.
2) Formulation of standard curve equation: prepare sodium nitrite solution concentration: 0 ,0 , 1, 3, 6, 12.5, 25, 50, 100 μmol/L, 150 μL of each concentration, add 50 μL of Griess reagent mix, incubated in 37° C. constant temperature shaker for 30 min, the plate reader measured each tube absorbance at 540 nm, after subtracting the blank solution reading, the standard curve equation . . . 78.56.13.25 • 3) Test compound test: mix 2 mL of the test compound solution and L-cysteine solution, incubate in 37° C. constant temperature shakers for 120 min, take 150 μL of each mixture, add 50 μL of Griess reagent, then incubate in 37° C. constant temperature shaker for 30 min, the microplate measured each tube absorbance at 540 nm, then subtract the blank solution reading and substitute the value into the standard curve equation to obtain NO release.

Row | SMILES | inhibition at 0.005 µM [1] [%] | 120 min NO^2− [2] [µM]
1 | CC#CCC(C)[C@@H](O)/C=C/[C@H]1[C@@H]2c3cccc(CCCC(=O)OCCO[N+](=O)[O-])c3O[C@@H]2C[C@@H]1O (stereo partly shown) [Compound 1] | 78 | 15.5
2 | CC#CCC(C)[C@@H](O)/C=C/[C@H]1[C@@H]2c3cccc(CCCC(=O)OCCCO[N+](=O)[O-])c3O[C@@H]2C[C@@H]1O (stereo partly shown) [Compound 2] | 66 | 14.3
3 | CC#CCC(C)[C@@H](O)/C=C/[C@H]1[C@@H]2c3cccc(CCCC(=O)OCCCCO[N+](=O)[O-])c3O[C@@H]2C[C@@H]1O (stereo partly shown) [Compound 3] | 57 | 16.6
4 | CC#CCC(C)[C@@H](O)/C=C/[C@H]1[C@@H]2c3cccc(CCCC(=O)OCCCCCO[N+](=O)[O-])c3O[C@@H]2C[C@@H]1O (stereo partly shown) [Compound 4] | 43 | 14.1
5 | CC#CCC(C)[C@@H](O)/C=C/[C@H]1[C@@H]2c3cccc(CCCC(=O)OCCCCCCO[N+](=O)[O-])c3O[C@@H]2C[C@@H]1O (stereo partly shown) [Compound 5] | 64 | 11.8
6 | CC#CCC(C)[C@@H](O)/C=C/[C@H]1[C@@H]2c3cccc(CCCC(=O)OCOCCO[N+](=O)[O-])c3O[C@@H]2C[C@@H]1O (stereo partly shown) [Compound 6] | 39 | 17.8
7 | CC#CCC(C)[C@@H](O)/C=C/[C@H]1[C@@H]2c3cccc(CCCC(=O)OCOCCCO[N+](=O)[O-])c3O[C@@H]2C[C@@H]1O (stereo partly shown) [Compound 7] | 44 | 17.7
8 | CC#CCC(C)[C@@H](O)/C=C/[C@H]1[C@@H]2c3cccc(CCCC(=O)OCCOCCO[N+](=O)[O-])c3O[C@@H]2C[C@@H]1O (stereo partly shown) [Compound 8] | 61 | 14.8
9 | CC#CCC(C)[C@@H](O)/C=C/[C@H]1[C@@H]2c3cccc(CCCC(=O)OCOC(=O)O[N+](=O)[O-])c3O[C@@H]2C[C@@H]1O (stereo partly shown) [Compound 9] | 52 | 18.2
10 | CC#CCC(C)[C@@H](O)/C=C/[C@H]1[C@@H]2c3cccc(CCCC(=O)OCOC(=O)CCO[N+](=O)[O-])c3O[C@@H]2C[C@@H]1O (stereo partly shown) [Compound 10] | 54 | 11.3
11 | CC#CCC(C)[C@@H](O)/C=C/[C@H]1[C@@H]2c3cccc(CCCC(=O)OCCCc4ccc(CO[N+](=O)[O-])cc4)c3O[C@@H]2C[C@@H]1O (stereo partly shown) [Compound 11] | 67 | 10.1
12 | CC#CCC(C)[C@@H](O)/C=C/[C@H]1[C@@H]2c3cccc(CCCC(=O)OCOC(=O)CCCO[N+](=O)[O-])c3O[C@@H]2C[C@@H]1O (stereo partly shown) [Compound 12] | 42 | 8.5
13 | CC#CCC(C)[C@@H](O)/C=C/[C@H]1[C@@H]2c3cccc(CCCC(=O)OCCCCc4ccc(CO[N+](=O)[O-])cc4)c3O[C@@H]2C[C@@H]1O (stereo partly shown) [Compound 13] | 61 | 10.1
14 | CC#CCC(C)[C@@H](O)/C=C/[C@H]1[C@@H]2c3cccc(CCCC(=O)OCCC4CCC(CO[N+](=O)[O-])CC4)c3O[C@@H]2C[C@@H]1O (stereo partly shown) [Compound 14] | 48 | 9.6
15 | CC#CCC(C)[C@@H](O)/C=C/[C@H]1[C@@H]2c3cccc(CCCC(=O)OCOC(=O)CCCCO[N+](=O)[O-])c3O[C@@H]2C[C@@H]1O (stereo partly shown) [Compound 16] | 81 | 12.1
16 | CC#CCC(C)[C@@H](O)/C=C/[C@H]1[C@@H]2c3cccc(CCCC(=O)OCCOC(=O)CO[N+](=O)[O-])c3O[C@@H]2C[C@@H]1O (stereo partly shown) [Compound 17] | 59 | 7.6
17 | CC#CCC(C)[C@@H](O)/C=C/[C@H]1[C@@H]2c3cccc(CCCC(=O)OCCCOC(=O)CCO[N+](=O)[O-])c3O[C@@H]2C[C@@H]1O (stereo partly shown) [Compound 18] | 66 | 8.0
